According to patent publication US20060024234A1, “Protein markers for pharmaceuticals and related toxicity” (LARGE SCALE PROTEOMICS CORPORATION, A Division of Large …, priority 2000, published 2006):

Legend:
[1] = Weight gain of treated rats; format: in vivo, rat; conditions: high doses
rat liver proteins [2] = target: T1, rat liver proteins (Rattus norvegicus, UniProt P55260); assay: Proteome analysis (2-D gel electrophoresis) of liver of rats fed antilipemic drugs at low and high dose for 7 days (Examples 1-3); format: in vivo; conditions: rat liver
T1 construct: The 2DGE protein pattern of rat liver illustrates over 1000 Coomassie Blue stained protein spots; from tissue; host or cells: liver (left apical lobe) of drug-fed F344 rats
T1 sequence (P55260 1-319): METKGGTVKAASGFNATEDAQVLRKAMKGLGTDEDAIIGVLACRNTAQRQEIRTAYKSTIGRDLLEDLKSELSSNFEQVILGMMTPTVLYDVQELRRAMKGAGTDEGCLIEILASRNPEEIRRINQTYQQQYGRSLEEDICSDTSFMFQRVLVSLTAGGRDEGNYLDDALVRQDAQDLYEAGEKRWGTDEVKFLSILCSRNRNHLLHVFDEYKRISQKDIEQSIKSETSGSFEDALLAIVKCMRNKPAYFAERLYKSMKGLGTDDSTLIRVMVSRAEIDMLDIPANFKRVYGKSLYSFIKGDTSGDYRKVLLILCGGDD
Experimental: (§1) The animals were guillotined after CO2 asphyxiation on the day following the last treatment. Liver samples (150 mg of the left apical lobe) were removed and flash frozen in liquid nitrogen and kept at −80° C. until analysis.
(§2) The homogenates were centrifuged at 420,000×g at 22° C. for 30 min. […] The supernatant was removed, divided into four aliquots and stored at −80° C. until analysis.
(§3) An Angelique™ computer-controlled gradient-casting system (Large Scale Biology Corporation, Rockville, Md.) was used to prepare the second-dimension SDS slab gels. […] Second-dimensional slab gels were run overnight at 160 V in cooled DALT tanks (10° C.) with buffer circulation and were taken out when the tracking dye reached the bottom of the gel. Following SDS electrophoresis, the slab gels were fixed overnight in 1.5 liters/10 gels of 50% ethanol/3% phosphoric acid and then washed three times for 30 min in 1.5 liters/10 gels of cold DI water. They were transferred to 1.5 liters/10 gels of 34% methanol/17% ammonium sulfate/3% phosphoric acid for one hour, and after the addition of one gram powdered Coomassie Blue G-250 the gels were stained for three days to achieve equilibrium intensity.
(§4) Groupwise statistical comparisons were made to search for treatment-related protein abundance changes.
(§5) For these experiments, only pharmaceutical grade compounds were used with the trademark identifying the source. […] In each experiment, the low dose was equivalent to the daily human therapeutic dose.

rat liver proteins [3] = target: T2, rat liver proteins (Rattus norvegicus, UniProt P31044); assay: as above; format: in vivo; conditions: rat liver
T2 construct: The 2DGE protein pattern of rat liver illustrates over 1000 Coomassie Blue stained protein spots; from tissue; host or cells: liver (left apical lobe) of drug-fed F344 rats
T2 sequence (P31044 1-187): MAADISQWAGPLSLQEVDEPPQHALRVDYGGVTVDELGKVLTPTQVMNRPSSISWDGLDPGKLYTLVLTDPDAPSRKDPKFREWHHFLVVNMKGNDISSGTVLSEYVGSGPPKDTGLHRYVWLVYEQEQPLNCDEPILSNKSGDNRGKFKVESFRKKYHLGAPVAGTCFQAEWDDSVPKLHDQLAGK
Experimental: as §1, §2, §3, §4, §5

rat liver proteins [4] = target: T3, rat liver proteins (Rattus norvegicus, UniProt P05545); assay: as above; format: in vivo; conditions: rat liver, high doses
T3 construct: The 2DGE protein pattern of rat liver illustrates over 1000 Coomassie Blue stained protein spots; from tissue; host or cells: liver (left apical lobe) of drug-fed F344 rats
T3 sequence (P05545 21-416): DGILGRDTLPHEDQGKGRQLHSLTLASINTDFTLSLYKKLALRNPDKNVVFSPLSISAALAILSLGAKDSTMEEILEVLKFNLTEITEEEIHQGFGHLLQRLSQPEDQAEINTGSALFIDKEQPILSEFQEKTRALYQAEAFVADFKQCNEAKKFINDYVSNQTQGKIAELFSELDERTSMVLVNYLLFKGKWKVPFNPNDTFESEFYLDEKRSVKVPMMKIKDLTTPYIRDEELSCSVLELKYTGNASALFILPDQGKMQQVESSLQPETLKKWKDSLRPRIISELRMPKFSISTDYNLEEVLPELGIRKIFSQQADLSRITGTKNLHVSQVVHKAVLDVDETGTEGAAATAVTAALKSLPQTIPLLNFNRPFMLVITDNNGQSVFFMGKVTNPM
Experimental: as §1, §2, §3, §4, §5

rat liver proteins [5] = assay: as above; format: in vivo
Experimental: as §1, §2, §3, §4, §5

[6] = rat liver, 1500 ppm in feed for 7 days

**Q.** With `CC[C@H](C)C(=O)O[C@H]1C[C@@H](C)C=C2C=C[C@H](C)[C@H](CC[C@@H]3C[C@@H](O)CC(=O)O3)[C@H]21` [Mevacor ®, lovastatin] as the compound, how does the weight gain [1] read?
**A.** Its weight gain is “decrease”.

**Q.** And the “annexin IV abundance” value (rat liver proteins [2])?
**A.** The value was “dose-dependent increase”.

**Q.** What about the “23 kD morphine binding protein abundance” value (rat liver proteins [3]) of the same compound?
**A.** The value was “increased”.

**Q.** What about the “serine protease inhibitor 2 (SPI-2) abundance” value (rat liver proteins [4]) of the same compound?
**A.** Its value is “decrease”.

**Q.** What about the “protein abundance changes in liver at low dose” value (rat liver proteins [5]; 16 ppm in feed for 7 days) of the same compound?
**A.** Its value is “not of statistical significance”.

**Q.** And the “protein kinase C inhibitor abundance” value (rat liver proteins [5]; rat liver)?
**A.** The value was “increased”.

**Q.** What about the “number of hepatic proteins with altered abundance, p<0.001” value (rat liver proteins [5]; [6]) of the same compound?
**A.** The value was 32.

**Q.** What about the “number of liver proteins with altered abundance, p<0.0001” value (rat liver proteins [5]; [6]) of the same compound?
**A.** The value was 8.

**Q.** What about the “number of liver proteins with altered abundance, p<0.005” value (rat liver proteins [5]; [6]) of the same compound?
**A.** The value was 64.

**Q.** And the “number of lost liver proteins” value (rat liver proteins [5]; [6])?
**A.** The value was “one”.

**Q.** What about the “number of new liver proteins” value (rat liver proteins [5]; [6]) of the same compound?
**A.** The value was 1.

**Q.** What about the “number of liver proteins with altered abundance (total)” value (rat liver proteins [5]; rat liver, two-tailed Student's t-test, 1500 ppm in feed for 7 days) of the same compound?
**A.** Its value is 66.
